Experiments:
CRE-GFP 293 cells [1] = assay: CRE-GFP 293 reporter cell assay (flow cytometry); type: cell-based, Human; settings: 0.5–2 μM for 5 h
Excerpt: Using the pCRE-MetLuc2-Reporter plasmid (Clontech, Mountain View, CA, USA) as a template, the DNA fragment containing the cAMP response element (CRE) motifs and TATA-like promoter (PTAL) flanked by MluI and AgeI restriction sites was amplified by PCR using sense ([…], MluI site underlined) and antisense ([…], AgeI site underlined) primers. The amplified CRE-PTAL promoter fragment was cloned into pGEM-T Easy (Promega, Madison, WI, USA) and sequenced. The CRE-PTAL-containing MluI/AgeI fragment and GFP-containing AgeI/NotI fragment (from pEGFP-N1; Clontech) were subcloned into MluI- and NotI-digested pcDNA5/FRT/TO (Novagen, Madison, WI, USA). The resulting construct with CRE-PTAL-driving GFP was used to establish 293 GFP reporter cells by targeting insertion into Flp-In-293 cells according to the supplier's instructions (Invitrogen). The cells were grown in a medium containing 5 μg/ml blasticidin and 100 μg/ml hygromycin.
(§1) On day 1, CRE-GFP 293 cells were seeded into 48-well plates (5 × 10^4/well). After 24 h, cells were treated with Ca^2+ ionophore (2 μM) (Sigma-Aldrich) for 0–24 h. Cell viability was measured using 3,(4,5-dimethylthiazol-2-yl)-2,5-diphenyltetrazolium bromide (MTT) assay (Sigma-Aldrich). The absorbance of the insoluble purple formazan dye was quantified at 570 nm on a μQuant microplate spectrophotometer (Bio-Tek). In addition, the cells were treated with the Ca^2+ ionophore A23187 (0.5–10 μM) (Sigma-Aldrich) for 5 h, followed by analysis of GFP fluorescence by flow cytometry (Becton–Dickinson, Franklin Lakes, NJ, USA) with excitation/emission wavelengths at 488/507 nm. To monitor CREB activation, cells were treated with forskolin or coumarin-chalcone derivatives (5–10 μM) in the presence or absence of Ca^2+ ionophore (2 μM) for 5 h, and GFP fluorescence was analysed.
To monitor the cAMP-mediated signal transduction pathway, CRE-GFP 293 cells in 6-well plates (1 × 10^6/well) were pretreated with kinase inhibitor H-89 (LC Laboratories, Woburn, MA, USA), KN-62 (Cayman Chemical, Ann Arbor, MI, USA), U0126 (LC Laboratories), or wortmannin (LC Laboratories) (10 μM) for 4 h before forskolin or LM-021 (10 μM) addition for 5 h. GFP fluorescence/protein and total/phosphorylated PKA, CaMKII, ERK, PI3K, and CREB levels were examined. In addition, Aβ-GFP or ∆K280 tauRD-DsRed SH-SY5Y cells were treated with retinoic acid (10 μM) on day 1, followed by the addition of LM-021 (5 or 10 μM) and doxycycline (5 or 2 μg/ml) on day 2, as described. Kinase inhibitors (10 μM) were added on day 6. On day 8, the cells were collected for protein expression analysis of BDNF, BCL2 (BCL2 apoptosis regulator), and BAX (BCL2 associated X, apoptosis regulator), and total/phosphorylated PKA, CaMKII, ERK, PI3K, and CREB. Also, cells were stained with DAPI and assessed for neurite outgrowth as described above.

CRE-GFP 293 cells [2] = assay: MTT cell viability of CRE-GFP 293 cells; type: cell-based, Human; settings: 2 μM for 3–6 h
Description: as §1

[3] = in vivo, po; cited from earlier work

Row | Compound | CRE-motif-driven GFP expression (CRE-GFP 293 cells [1]) | Cell viability (MTT) (CRE-GFP 293 cells [2]) | Share of orally administered dose that enters the brain [3]
1 | CNc1ccc2oc(C[C@H]3O[C@@]4(CC[C@H]3C)O[C@H]([C@H](C)C(=O)c3ccc[nH]3)[C@H](C)C[C@H]4C)nc2c1C(=O)O [Ca^2+ ionophore] | stimulated | No significant cell death | –
2 | N[C@@H](Cc1ccc(O)c(O)c1)C(=O)O [levodopa] | – | – | about 1%

Source: paper PMC8605905 (Oxidative Medicine and Cellular Longevity, 2021)
